Where a name gives a salt, the structure may show the parent alone.
Test system: kidney
Assay: Transcriptional profiling on Affymetrix GeneChips, single dose, naïve mice: kidney
Assay type: in vivo, C57BL/6 mice
Conditions: for Number of differentially expressed genes identified: Kidney: Naïve, Single Dose, 100 mpk, vs Vehicle
Procedure: Treated mice were sacrificed at 2, 7, or 12 hours. Tissues (liver, spleen, kidney, jejunum, cortex, hippocampus, striatum and whole blood) were collected and analyzed by transcriptional profiling on mouse Affymetrix GeneChips.
Tissues (liver, spleen, kidney, jejunum, cortex, hippocampus, striatum and whole blood) were collected and analyzed by transcriptional profiling on mouse Affymetrix GeneChips.
Animals were exposed to CO2 and whole blood collected via cardiac puncture. Two 100 μl aliquots of whole blood were collected in 1.5 mL microcentrifuge tubes and snap frozen in liquid nitrogen. Peripheral (liver, spleen, kidney and jejunum) and CNS brain (cerebellum, hippocampus, striatum and cortex) tissues were harvested and snap frozen in liquid nitrogen, with special care taken to collect tissues of similar size and from the same location. All samples were stored at −80° C. until RNA extraction was conducted.
For RNA preparation, frozen tissues were placed in 2 mL RNAse-free 96-well blocks with 1.5 mL QIAzol Lysis Reagent (QIAgen) and a 3.2 mm stainless steel bead (BioSpec Products, Bartlesville, Okla.). Tissues were disrupted for four cycles of 45 seconds in a Mini-Beadbeater (Biospec Products). RNA was extracted in chloroform and the aqueous phase was mixed with an equal volume of 70% ethanol. Extracted RNA was applied to RNeasy 96 plates and purified by the spin method according to the manufacturer's protocol (RNeasy 96 Universal Tissue Protocol, QIAgen, Hilden Germany).
Automated sample amplifications and biotin labelings were carried out using the NuGEN Ovation RNA Amplification system V2 (Cat #3100), Ovation WB reagent (Cat #1300) and Encore Biotin module (Cat #4200) (NuGEN Technologies, Inc, San Carlos, Calif.) according to manufacturer's recommendations using an Arrayplex automated liquid handler (Beckman Coulter, Indianapolis, Ind.). Two micrograms of biotin labeled sscDNA probe were hybridized to Affymetrix GeneChip Affymetrix HT_MG-430_PM plate arrays with modified conditions as described in Allaire et al. Washing and staining of the hybridized arrays were completed as described in the GeneChip Expression analysis technical manual for HT plate arrays using the Genechip® Array Station (Affymetrix, Santa Clara, Calif.) with modifications as described in Allaire et al. The processed GeneChip® plate arrays were scanned using GeneTitan scanner (Affymetrix, Santa Clara, Calif.).
Affymetrix scans were subject to quality control (QC) measures. These tests included a visual inspection of the distribution of raw signal intensities and an assessment of RNA degradation, relative log expression (RLE), and normalized unsealed standard error (NUSE). All sample scans that passed these QC metrics were included in the analysis.
All CEL files were subjected to GC-content-based Robust Multi-array Average (GCRMA) normalization (version 2.20.0) (Irizarry R A, et al. Nucleic Acids Res 2003; 31:e15; Li C, et al. Genome Biol 2001; 2:[…]0032). Expression levels were log (base 2) transformed.
All calculations and analyses were carried out using R (version 2.11.1) and Bioconductor computational tools (Gentleman R. Springer Science+Business Media 2005).

COC(=O)/C=C/C(=O)O [MMF, monomethyl fumarate]
FC Hfe 1422645_PM_at (100MMF-vs-Veh, 12 h): 1.56
FC Ikbkg 1421209_PM_s_at (100MMF-vs-Veh, 12 h): 1.57
FC Mep1b 1418215_PM_at (100MMF-vs-Veh, 12 h): −1.55
FC Mthfd2 1419253_PM_at (100MMF-vs-Veh, 12 h): 1.65
FC Myo5a 1419754_PM_at (100MMF-vs-Veh, 12 h): −3.09
FC Nek6 1423596_PM_at (100MMF-vs-Veh, 12 h): 1.69
FC Pnkd 1418746_PM_at (100MMF-vs-Veh, 12 h): 1.51
FC Slc6a4 1417150_PM_at (100MMF-vs-Veh, 12 h): 1.58
FC Slc38a3 1418706_PM_at (100MMF-vs-Veh, 12 h): 1.81
FC Smcp 1418358_PM_at (100MMF-vs-Veh, 12 h): −2.49
FC Srxn1 (1419942_PM_at) (100MMF-vs-Veh, 12 h): 1.96
FC Tfrc 1422966_PM_a_at (100MMF-vs-Veh, 12 h): 1.51
FC Tiam2 1423186_PM_at (100MMF-vs-Veh, 12 h): 1.84
FC Txnrd1 1421529_PM_a_at (100MMF-vs-Veh, 12 h): 1.55
Number of genes, DMF Only / MMF Only (Kidney): 94
Asns (1451095_PM_at) differential expression (Kidney, 2 hr): 2.46
Cbr3 (1427912_PM_at) differential expression (Kidney, 2 hr): 2.96
Gdf15 (1418949_PM_at) differential expression (Kidney, 2 hr): 5.50
Maf (probe set 1437473_PM_at) differential expression (Kidney, 2 hr): −1.56
Mthfd2 (1419253_PM_at) differential expression (Kidney, 2 hr): 2.03
Number of differentially expressed genes identified: Kidney (2 h after last dosing): 274
Number of differentially expressed genes identified: Kidney (7 h after last dosing): 156
Number of differentially expressed genes identified: Kidney (12 h after last dosing): 151
Asns (1451095_PM_at) differential expression (kidney, 7 hr): 2.13
Cbr1 (probe set 1460196_PM_at) differential expression (kidney, 7 hr): 1.58
Cbr3 (1427912_PM_at) differential expression (kidney, 7 hr): 9.54
Cul9 (probe set 1439866_PM_at) differential expression (kidney, 7 hr): −1.52
Dbp (probe set 1418174_PM_at) differential expression (kidney, 7 hr): −1.73
Fam107a (probe set 1435918_PM_at) differential expression (kidney, 7 hr): −1.77
Frem2 (probe set 1457038_PM_at) differential expression (kidney, 7 hr): −1.66
Gdf15 (1418949_PM_at) differential expression (kidney, 7 hr): 1.98
Gpr135 (probe set 1441944_PM_s_at) differential expression (kidney, 7 hr): 1.66
Ido2 (probe set 1425778_PM_at) differential expression (kidney, 7 hr): −1.52
Il18 (probe set 1417932_PM_at) differential expression (kidney, 7 hr): −1.52
Kcnh1 (probe set 1435994_PM_at) differential expression (kidney, 7 hr): −1.61
Kif20b (probe set 1439695_PM_a_at) differential expression (kidney, 7 hr): −2.61
Mthfd2 (1419253_PM_at) differential expression (kidney, 7 hr): 1.89
Nmral1 (probe set 1430530_PM_s_at) differential expression (kidney, 7 hr): −1.52
Ppm1e (probe set 1434990_PM_at) differential expression (kidney, 7 hr): −1.53
Rab38 (probe set 1417700_PM_at) differential expression (kidney, 7 hr): −1.57
Slc48a1 (probe set 1450410_PM_a_at) differential expression (kidney, 7 hr): 1.58
Sphk2 (probe set 1426230_PM_at) differential expression (kidney, 7 hr): −1.54
Tmem86a (probe set 1428758_PM_at) differential expression (kidney, 7 hr): −1.56
Wdr90 (probe set 1426767_PM_at) differential expression (kidney, 7 hr): −1.58
Acot1 (probe set 1449065_PM_at) differential expression (kidney, 12 hr): 1.59
Acot1 /// Acot2 (probe set 1422997_PM_s_at) differential expression (kidney, 12 hr): 1.51
Acsm2 (probe set 1427224_PM_at) differential expression (kidney, 12 hr): −1.52
Aldh1a1 (probe set 1416468_PM_at) differential expression (kidney, 12 hr): 2.21
Arhgap26 (probe set 1440688_PM_at) differential expression (kidney, 12 hr): −1.57
Asns (1451095_PM_at) differential expression (kidney, 12 hr): 2.49
Atp11a (probe set 1421167_PM_at) differential expression (kidney, 12 hr): −1.62
